Measurements as given in US20240425490A1, “SULFAMIDE RIBONUCLEOTIDE REDUCTASE (RNR) INHIBITORS AND USES THEREOF” (Boundless Bio, Inc., priority 2021, published 2024).

Target: T1, RNR (RNR1:RNR2 1:1) (Homo sapiens, UniProt P23921)
T1 sequence (P23921 1-792): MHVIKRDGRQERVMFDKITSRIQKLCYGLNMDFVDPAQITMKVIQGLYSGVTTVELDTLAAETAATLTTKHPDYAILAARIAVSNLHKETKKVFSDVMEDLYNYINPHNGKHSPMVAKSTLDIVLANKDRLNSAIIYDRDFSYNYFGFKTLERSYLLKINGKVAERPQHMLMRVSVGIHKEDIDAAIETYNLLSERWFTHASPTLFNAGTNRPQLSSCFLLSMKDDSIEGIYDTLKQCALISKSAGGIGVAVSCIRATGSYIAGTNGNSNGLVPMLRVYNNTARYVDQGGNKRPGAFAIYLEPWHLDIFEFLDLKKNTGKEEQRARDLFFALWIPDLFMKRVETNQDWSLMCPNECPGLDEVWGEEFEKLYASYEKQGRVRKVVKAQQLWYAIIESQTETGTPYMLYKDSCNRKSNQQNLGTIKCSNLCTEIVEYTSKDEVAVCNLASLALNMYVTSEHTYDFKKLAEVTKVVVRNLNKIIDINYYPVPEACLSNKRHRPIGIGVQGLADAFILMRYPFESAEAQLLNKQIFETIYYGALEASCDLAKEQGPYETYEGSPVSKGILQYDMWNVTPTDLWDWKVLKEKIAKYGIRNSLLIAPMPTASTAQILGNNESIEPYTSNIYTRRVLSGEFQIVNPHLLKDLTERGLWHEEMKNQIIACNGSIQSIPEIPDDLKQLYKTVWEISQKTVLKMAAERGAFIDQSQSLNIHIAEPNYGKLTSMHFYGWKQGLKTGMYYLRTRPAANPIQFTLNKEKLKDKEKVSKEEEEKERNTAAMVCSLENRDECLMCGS
Assay: RNR enzyme activity, rapid-fire mass spectrometry (RFMS) assay
Type: biochemical
Conditions: RNR 50 nM, CDP 5 μM, ATP 1 mM, 37° C., 45 min, compounds screened up to 50 μM, read-out: RF/MS IC50
Outline: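 Human RNR1:RNR2 (1:1, 50 nM) pre-incubated 15 min at room temperature with compound, then reacted with 5 μM CDP and 1 mM ATP, no NADPH, for 45 min at 37 °C. Stopped with 6% HCOOH; turnover read by rapid-fire mass spectrometry; Triapine and hydroxyurea as reference compounds.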

| IC50 [µM] | Structure (SMILES) |
| --- | --- |
| 0.1 to 1 | Cc1ccc(F)c([C@@H](C)[C@H](NS(=O)(=O)N2CCC(Br)CC2)c2n[nH]c(=O)o2)c1C [Example 100, 4-bromo-N-((1S,2R)-2-(6-fluoro-2,3-dimethylphenyl)-1-(5-oxo-4,5-dihydro-1,3,4-oxadiazol-2-yl)propyl)piperidine-1-sulfonamide] |
| 0.1 to 1 | Cc1ccc(F)c([C@@H](C)[C@H](NS(=O)(=O)N2CCC3(CCCC3)CC2)c2n[nH]c(=O)o2)c1C [Example 71, N-((1S,2R)-2-(6-fluoro-2,3-dimethylphenyl)-1-(5-oxo-4,5-dihydro-1,3,4-oxadiazol-2-yl)propyl)-8-azaspiro[4.5]decane-8-sulfonamide] |
| 10 to 100 | Cc1ccc(F)c([C@H](C)[C@H](NS(=O)(=O)N2CCC(c3c[nH]c4ccccc34)CC2)c2n[nH]c(=O)o2)c1C [Example 69, N-((1S,2S)-2-(6-fluoro-2,3-dimethylphenyl)-1-(5-oxo-4,5-dihydro-1,3,4-oxadiazol-2-yl)propyl)-4-(1H-indol-3-yl)piperidine-1-sulfonamide] |
| 0.1 to 1 | Cc1ccc(F)c([C@@H](C)[C@H](NS(=O)(=O)N2C3CCC2CC(F)(F)C3)c2n[nH]c(=O)o2)c1C [Example 110, 3,3-difluoro-N-((1S,2R)-2-(6-fluoro-2,3-dimethylphenyl)-1-(5-oxo-4,5-dihydro-1,3,4-oxadiazol-2-yl)propyl)-8-azabicyclo[3.2.1]octane-8-sulfonamide] |
| 10 to 100 | Cc1ccc(F)c([C@H](C)[C@H](NS(=O)(=O)N2CCCCC2C(=O)O)c2n[nH]c(=O)o2)c1C (stereo partly drawn) [Example 14, 1-(N-((1S,2S)-2-(6-fluoro-2,3-dimethylphenyl)-1-(5-oxo-4,5-dihydro-1,3,4-oxadiazol-2-yl)propyl)sulfamoyl)piperidine-2-carboxylic acid] |
| 10 to 100 | Cc1ccc(F)c(C(C)[C@H](NS(=O)(=O)N2CCC(F)(F)C2)c2n[nH]c(=O)o2)c1C (stereo partly drawn) [Example 137, 3,3-difluoro-N-((1S)-2-(6-fluoro-2,3-dimethylphenyl)-1-(5-oxo-4,5-dihydro-1,3,4-oxadiazol-2-yl)propyl)pyrrolidine-1-sulfonamide] |
| 0.1 to 1 | Cc1ccc(F)c(C(C)[C@H](NS(=O)(=O)N2CCC(c3noc4ccc(F)cc34)CC2)c2n[nH]c(=O)o2)c1C (stereo partly drawn) [Example 74, N-((1S)-2-(6-fluoro-2,3-dimethylphenyl)-1-(5-oxo-4,5-dihydro-1,3,4-oxadiazol-2-yl)propyl)-4-(5-fluorobenzo[d]isoxazol-3-yl)piperidine-1-sulfonamide] |
| 1 to 10 | CCCCC1CCN(S(=O)(=O)N[C@H](c2n[nH]c(=O)o2)[C@H](C)c2c(F)ccc(C)c2C)CC1 [Example 79, 4-butyl-N-((1S,2R)-2-(6-fluoro-2,3-dimethylphenyl)-1-(5-oxo-4,5-dihydro-1,3,4-oxadiazol-2-yl)propyl)piperidine-1-sulfonamide] |
| 10 to 100 | Cc1ccc(F)c([C@H](C)[C@H](NS(=O)(=O)N2CCCCC2c2ccccc2)c2n[nH]c(=O)o2)c1C (stereo partly drawn) [Example 36, N-((1S,2S)-2-(6-fluoro-2,3-dimethylphenyl)-1-(5-oxo-4,5-dihydro-1,3,4-oxadiazol-2-yl)propyl)-2-phenylpiperidine-1-sulfonamide] |
| 1 to 10 | CC(=O)N(C)C1CCN(S(=O)(=O)N[C@H](c2n[nH]c(=O)o2)C(C)c2c(F)ccc(C)c2C)CC1 (stereo partly drawn) [Example 63, N-(1-(N-((1S)-2-(6-fluoro-2,3-dimethylphenyl)-1-(5-oxo-4,5-dihydro-1,3,4-oxadiazol-2-yl)propyl)sulfamoyl)piperidin-4-yl)-N-methylacetamide] |
| 10 to 100 | Cc1ccc(F)c([C@H](C)[C@H](NS(=O)(=O)N2CCC3(CCO3)CC2)c2n[nH]c(=O)o2)c1C [Example 61, N-((1S,2S)-2-(6-fluoro-2,3-dimethylphenyl)-1-(5-oxo-4,5-dihydro-1,3,4-oxadiazol-2-yl)propyl)-1-oxa-7-azaspiro[3.5]nonane-7-sulfonamide] |
| 1 to 10 | Cc1ccc(F)c(C(C)[C@H](NS(=O)(=O)N2CCC(N3CCCC3=O)CC2)c2n[nH]c(=O)o2)c1C (stereo partly drawn) [Example 80, N-((1S)-2-(6-fluoro-2,3-dimethylphenyl)-1-(5-oxo-4,5-dihydro-1,3,4-oxadiazol-2-yl)propyl)-4-(2-oxopyrrolidin-1-yl)piperidine-1-sulfonamide] |
| 1 to 10 | Cc1ccc(F)c([C@H](C)[C@H](NS(=O)(=O)N2CCc3ccccc3C2)c2n[nH]c(=O)o2)c1C [Example 136, N-((1S,2S)-2-(6-fluoro-2,3-dimethylphenyl)-1-(5-oxo-4,5-dihydro-1,3,4-oxadiazol-2-yl)propyl)-3,4-dihydroisoquinoline-2(1H)-sulfonamide] |
| 1 to 10 | CC(=O)NC1CCN(S(=O)(=O)N[C@H](c2n[nH]c(=O)o2)[C@@H](C)c2c(F)ccc(C)c2C)CC1 [Example 30, N-(1-(N-((1S,2S)-2-(6-fluoro-2,3-dimethylphenyl)-1-(5-oxo-4,5-dihydro-1,3,4-oxadiazol-2-yl)propyl)sulfamoyl)piperidin-4-yl)acetamide] |
| 10 to 100 | CNC(=O)CC1CCN(S(=O)(=O)N[C@H](c2n[nH]c(=O)o2)C(C)c2c(F)ccc(C)c2C)CC1 (stereo partly drawn) [Example 66, 2-(1-(N-((1S)-2-(6-fluoro-2,3-dimethylphenyl)-1-(5-oxo-4,5-dihydro-1,3,4-oxadiazol-2-yl)propyl)sulfamoyl)piperidin-4-yl)-N-methylacetamide] |
| 1 to 10 | Cc1ccc(F)c([C@@H](C)[C@H](NS(=O)(=O)N2CCCC[C@@H]2C(N)=O)c2n[nH]c(=O)o2)c1C [Example 12, (R)-1-(N-((1S,2R)-2-(6-fluoro-2,3-dimethylphenyl)-1-(5-oxo-4,5-dihydro-1,3,4-oxadiazol-2-yl)propyl)sulfamoyl)piperidine-2-carboxamide] |
| 1 to 10 | Cc1ccc(F)c(C(C)[C@H](NS(=O)(=O)N2CCCC(C#N)C2)c2n[nH]c(=O)o2)c1C (stereo partly drawn) [Example 26, 3-cyano-N-((1S)-2-(6-fluoro-2,3-dimethylphenyl)-1-(5-oxo-4,5-dihydro-1,3,4-oxadiazol-2-yl)propyl)piperidine-1-sulfonamide] |
| 10 to 100 | CC(=O)NC1CCN(S(=O)(=O)N[C@H](c2n[nH]c(=O)o2)C(C)c2c(F)ccc(C)c2C)CC1 (stereo partly drawn) [Example 29, N-(1-(N-((1S)-2-(6-fluoro-2,3-dimethylphenyl)-1-(5-oxo-4,5-dihydro-1,3,4-oxadiazol-2-yl)propyl)sulfamoyl)piperidin-4-yl)acetamide] |
| 1 to 10 | CC(=O)N1CCN(S(=O)(=O)N[C@H](c2n[nH]c(=O)o2)C(C)c2c(F)ccc(C)c2C)CC1 (stereo partly drawn) [Example 37, 4-acetyl-N-((1S)-2-(6-fluoro-2,3-dimethylphenyl)-1-(5-oxo-4,5-dihydro-1,3,4-oxadiazol-2-yl)propyl)piperazine-1-sulfonamide] |
| 0.1 to 1 | Cc1ccc(F)c(C(C)[C@H](NS(=O)(=O)N2CCC(Cl)(C#N)CC2)c2n[nH]c(=O)o2)c1C (stereo partly drawn) [Example 101, 4-chloro-4-cyano-N-((1S)-2-(6-fluoro-2,3-dimethylphenyl)-1-(5-oxo-4,5-dihydro-1,3,4-oxadiazol-2-yl)propyl)piperidine-1-sulfonamide] |
| 10 to 100 | Cc1ccc(F)c([C@H](C)[C@H](NS(=O)(=O)N2CCC3(CCCN(C)C3)CC2)c2n[nH]c(=O)o2)c1C [Example 84, N-((1S,2S)-2-(6-fluoro-2,3-dimethylphenyl)-1-(5-oxo-4,5-dihydro-1,3,4-oxadiazol-2-yl)propyl)-2-methyl-2,9-diazaspiro[5.5]undecane-9-sulfonamide] |
| 10 to 100 | Cc1ccc(F)c(C(C)[C@H](NS(=O)(=O)N2CCC(CN3CCCCC3)CC2)c2n[nH]c(=O)o2)c1C (stereo partly drawn) [Example 62, N-((1S)-2-(6-fluoro-2,3-dimethylphenyl)-1-(5-oxo-4,5-dihydro-1,3,4-oxadiazol-2-yl)propyl)-4-(piperidin-1-ylmethyl)piperidine-1-sulfonamide] |
| 0.1 to 1 | Cc1ccc(F)c([C@@H](C)[C@H](NS(=O)(=O)N2CCC3(CC2)OCCCO3)c2n[nH]c(=O)o2)c1C [Example 85, N-((1S,2R)-2-(6-fluoro-2,3-dimethylphenyl)-1-(5-oxo-4,5-dihydro-1,3,4-oxadiazol-2-yl)propyl)-1,5-dioxa-9-azaspiro[5.5]undecane-9-sulfonamide] |
| 1 to 10 | Cc1ccc(F)c(C(C)[C@H](NS(=O)(=O)N2CCCC3CN(C(=O)OC(C)(C)C)CC32)c2n[nH]c(=O)o2)c1C (stereo partly drawn) [Example 23, tert-butyl 1-(N-((1S)-2-(6-fluoro-2,3-dimethylphenyl)-1-(5-oxo-4,5-dihydro-1,3,4-oxadiazol-2-yl)propyl)sulfamoyl)-octahydro-6H-pyrrolo[3,4-b]pyridine-6-carboxylate] |
